What was measured:
[1] = tested on: S. aureus MW2 skin infection; test: Skin-abraded murine infection, prophylactic (acute) model, bacterial load; type: in vivo, mice; conditions: for Reduction of S. aureus MW2 burden vs vehicle, prophylactic model: single treatment 10 minutes after inoculation, n = 12; for Reduction of S. aureus MW2 burden, repeat of prophylactic model: n = 8
Method: 599 In vivo murine skin infection and treatment
600 We used a topical skin-abraded murine infection model with minor modifications to test
601 the in vivo efficacy of the CIT-8 peptide (25). We performed all mouse studies following the
602 protocol approved by the Institutional Animal Care and Use Committee. In brief, we anesthetized
603 female C57BL/6 mice (6 weeks) (Jackson Laboratory, Bar Harbor, ME, USA) with ketamine-
604 xylazine (90 mg/kg ketamine and 10 mg/kg xylazine) via intraperitoneal injection. We shaved the
605 dorsal side of the mice in the middle of the back (area=2 cm2). To disrupt skin integrity, we tape-
606 stripped with Tensoplast® seven times in succession, replacing the tape each time, resulting in
607 visibly damaged skin. We infected the damaged skin area with 1 × 10^7 CFU of S. aureus MW2
608 (exponential phase bacteria in PBS) with an inoculum of 50 µl using a pipette tip. Ten minutes
609 (prophylactic model) and 24 h (established model) after bacterial inoculation, we applied 30 mg
610 of 1 and 2% (w/w) CIT-8 ointment in a white petroleum jelly base (Cat no. 19-090-843, Fisher
611 Scientific, MA, USA) to the skin. We also included animal groups treated with only petroleum
612 jelly or with 2% commercial mupirocin ointment as negative and positive controls, respectively.
613 For pain management, we used the analgesic buprenorphine SR (0.05 mg/kg).
614 After 24 h of treatment, we euthanized the animals, separated the skin from the underlying
615 fascia and muscle tissue, and excised about 2 cm2 of skin from the infected area. We ground the
616 skin in 1ml of PBS buffer (Gibco, MD, USA). We serially diluted 100 µl of the solution in PBS
617 and plated it on Remel™ TSA plates (Fisher, MA, USA) to estimate viable colony counts after 18
618 h of incubation at 37 °C. Further, we added 10 µl of EDTA-Free, protease inhibitor cocktail Set III
619 (Millipore Sigma, MA, USA) to 500 µl of the ground skin PBS solution for cytokine estimation.
620 The Cytokine Core, LLC (Indianapolis, IN, USA) performed the cytokine concentration analysis

S. aureus MW2 membrane = test: Membrane depolarization, DiBAC4(3); type: cell-based, Staphylococcus aureus; conditions: S. aureus MW2, 32 μg/mL
Method: 466 Membrane depolarization
467 We measured bacterial membrane potential using an established protocol with minor
468 modifications (9). We prepared an exponential phase culture of S. aureus MW2 in fresh TSB
469 medium, washed the culture two times in PBS, and resuspended it in a double volume of PBS. To
470 energize the bacterial cells, we added 25 mM of glucose for 15 mins at 37°C, followed by 500 nM
471 of DiBAC4(3) (bis-(1,3-dibutylbarbituric acid) trimethine oxonol) (Thermo Fisher Scientific, ON,
472 Canada). DiBAC4(3) is a potential-sensitive probe that enters depolarized cells, binds to
474 this bacterial culture per well in a black, clear bottomed 96-well plate (Cat. no. 3904, Corning,
475 NY, USA) and monitored the fluorescence using a SpectraMax i3x (Molecular Devices, CA, USA)
476 for 20 min, with excitation at 485 nm and emission at 520 nm, until the baseline stabilized. Then
477 we added 10 µl of serially diluted peptide solutions and recorded the fluorescence for another 40
478 min. We included triton X-100 (1%) as a positive control.

S. aureus MW2 = test: ATP release assay (luciferase); type: cell-based, Staphylococcus aureus; conditions: 32 μg/mL, 30 minutes
Method: 484 min at room temperature in the dark based on a previously established protocol (8). We added 90
485 µl of the dye/bacteria mixture to 10 μl of serially diluted 10× peptide concentration in black, 96-
486 well plates (Cat. no. 3904, Corning, NY, USA) and incubated the plates for 1 hour at room
487 temperature. We measured the fluorescence with excitation and emission wavelengths of 485 nm
488 and 525 nm, respectively in endpoint assay mode using a SpectraMax i3x (Molecular Devices,
489 CA, USA) fluorescence reader.
490 Propidium iodide-based membrane permeability
491 We used a propidium iodide (Thermo Fisher Scientific, MA, USA) fluorescence-based
492 bacterial permeation assay to establish membrane-oriented interactions with the designed peptides
493 based on a previously established protocol (8). We prepared exponential phase S. aureus MW2
494 bacteria and diluted to OD600 = 0.4 in PBS. We added PI dye (final concentration = 2 µM) to the
495 bacteria in 1:10 serial dilutions in black, 96-well plates (Cat. no. 3904, Corning, NY, USA) and
496 incubated the plates for 1 hour at room temperature. We then measured the fluorescence with an
497 excitation wavelength of 584 nm and an emission wavelength of 620 nm in endpoint assay mode
498 using a SpectraMax i3x (Molecular Devices, CA, USA) fluorescence reader.
501 To determine the ATP leakage potential of the peptides, we employed a luciferase-based […]

[2] = tested on: S. aureus VRS1 (VRSA) exponential and persister cells; test: S. aureus persister cell and time-kill assays (VRS1); type: cell-based, Staphylococcus aureus; conditions: 10 × MIC
Method: 305 Minimal inhibitory concentration (MIC) assay
We made serial dilutions of 10×
We determined the MIC using OD600
Accordingly, we added 150 mM NaCl,
319 established protocol (5).
323 aureus VRS1) in PBS. To assess the killing kinetics of CIT-8 in persister cells, we added 1 ml of
324 cell suspension to the wells of a 2-ml deep-well assay block (Cat no. 3960, Corning, NY, USA)
We also included ciprofloxacin (at 10 μg/ml) for S.
326 aureus MW2 and linezolid (100 μg/ml) for S. aureus VRS1 as antibiotic controls. Additionally,
327 we included bithionol (at 10 μg/ml) as a positive control, known for its ability to kill stationary
328 phase persister cells (6). We incubated the plates at 37°C, with shaking at 225 rpm. At specific
329 times (0, 15, 30, 60, and 120 min), we collected 10 μl samples, diluted them serially, and then
330 plated them on tryptic soy agar (TSA) (BD Difco, NJ, USA) plates. We incubated the TSA plates
331 for 18 hours at 37°C for colony counting. We performed these experiments in duplicate. As a
332 comparison, we prepared the exponential cells of S. aureus MW2 and VRS1 in PBS and analyzed
333 their killing kinetics in the same manner as described for persister cells.

H-GLFKVIKKLLKVI-NH2 [CIT-8]
Bacterial load from skin specimens, prophylactic model ([1]; 1% ointment 10 minutes after infection, animal 1): 11428571 | Bacterial load from skin specimens, prophylactic model ([1]; 1% ointment 10 minutes after infection, animal 2): 16000000 | Bacterial load from skin specimens, prophylactic model ([1]; 1% ointment 10 minutes after infection, animal 3): 1555556 | Bacterial load from skin specimens, prophylactic model ([1]; 1% ointment 10 minutes after infection, animal 4): 3636364 | Bacterial load from skin specimens, prophylactic model ([1]; 1% ointment 10 minutes after infection, animal 5): 6000000 | Bacterial load from skin specimens, prophylactic model ([1]; 1% ointment 10 minutes after infection, animal 6): 3111111 | Bacterial load from skin specimens, prophylactic model ([1]; 1% ointment 10 minutes after infection, animal 7): 2250000 | Bacterial load from skin specimens, prophylactic model ([1]; 1% ointment 10 minutes after infection, animal 8): 2200000 | Bacterial load from skin specimens, prophylactic model ([1]; 1% ointment 10 minutes after infection, animal 9): 4210526 | Bacterial load from skin specimens, prophylactic model ([1]; 1% ointment 10 minutes after infection, animal 10): 6153846 | Bacterial load from skin specimens, prophylactic model ([1]; 1% ointment 10 minutes after infection, animal 11): 4000000 | Bacterial load from skin specimens, prophylactic model ([1]; 1% ointment 10 minutes after infection, animal 12): 6060606 | Reduction of S. aureus MW2 burden vs vehicle, prophylactic model ([1]; 1% w/w ointment): 1.7 log | Reduction of S. aureus MW2 burden, repeat of prophylactic model ([1]; 1% w/w): 1.4 log | Bacterial load from skin specimens, prophylactic model ([1]; 2% ointment 10 minutes after infection, animal 1): 1000000 | Bacterial load from skin specimens, prophylactic model ([1]; 2% ointment 10 minutes after infection, animal 2): 1142857 | Bacterial load from skin specimens, prophylactic model ([1]; 2% ointment 10 minutes after infection, animal 3): 2400000 | Bacterial load from skin specimens, prophylactic model ([1]; 2% ointment 10 minutes after infection, animal 4): 444444 | Bacterial load from skin specimens, prophylactic model ([1]; 2% ointment 10 minutes after infection, animal 5): 1684211 | Bacterial load from skin specimens, prophylactic model ([1]; 2% ointment 10 minutes after infection, animal 6): 4000000 | Bacterial load from skin specimens, prophylactic model ([1]; 2% ointment 10 minutes after infection, animal 7): 666667 | Bacterial load from skin specimens, prophylactic model ([1]; 2% ointment 10 minutes after infection, animal 8): 923077 | Bacterial load from skin specimens, prophylactic model ([1]; 2% ointment 10 minutes after infection, animal 9): 909091 | Bacterial load from skin specimens, prophylactic model ([1]; 2% ointment 10 minutes after infection, animal 10): 4923077 | Bacterial load from skin specimens, prophylactic model ([1]; 2% ointment 10 minutes after infection, animal 11): 3666667 | Bacterial load from skin specimens, prophylactic model ([1]; 2% ointment 10 minutes after infection, animal 12): 1200000 | Reduction of bacterial burden, mouse model of MRSA skin infection ([1]; 2% w/w in petroleum jelly (abstract)): 2.3 log10 | Reduction of S. aureus MW2 burden vs vehicle, prophylactic model ([1]; 2% w/w ointment): 2.3 log | Reduction of S. aureus MW2 burden, repeat of prophylactic model ([1]; 2% w/w): 2.1 log | Membrane depolarization, DIBAC4(3) fluorescence (S. aureus MW2 membrane): rapid increase in DIBAC4(3) fluorescence | ATP leakage, luminescence (S. aureus MW2): increased luminescence levels | Time to eradication of exponential and VRSA persister cells [2]: ≤ 120 min

Source: paper PMC12165799, “Antimicrobial peptide developed with machine learning sequence optimization targets drug resistant Staphylococcus aureus in mice” (The Journal of Clinical Investigation, 2025)
